Where “and” joins values, the source holds several entries; their conditions need not be identical. Equal values may be shown once.
Biological target: SARS-CoV-2 NSP3 Mac1 (Severe acute respiratory syndrome coronavirus 2, UniProt P0DTD1)
Test: biochemical
Type: binding
Settings: for inhibition at 25 µM: MIDAS compound library primary screen; for inhibition at 125 µM / IC50 / IC50 in µM / Inhibition at top concentration of 125 µM (%): MIDAS hit compounds and analogues; for inhibition at 125 µM: read-out: Inhibition at top concentration of 125 µM (%); for IC50 / IC50 in µM: top concentration 125 µM, 8-point 1:1 dilution, duplicate; for IC50: read-out: IC50

Compound | inhibition at 25 µM [%] | inhibition at 125 µM [%] | IC50 | IC50 in µM | Inhibition at top concentration of 125 µM (%) | assay effects in dose-response titration (MIDAS hits and analogues, higher compound concentrations)
COc1ccc(-c2cc(C(=O)O)c3cc(NC(C)=O)ccc3n2)cc1 [IAL-MD0031, COC=1C=CC(=CC1)C=2C=C(C(=O)O)C=3C=C(NC(=O)C)C=CC3N2] | 48 | 81.3 | 19 µM and 19.3 µM | – | – | –
CC(=O)Nc1cccc(NC(=O)c2cc(-c3cccs3)nc3c2cnn3C(C)C)c1 [IAL-MD0032, CC(C)N1N=CC=2C(=CC(=NC12)C3=CC=CS3)C(=O)NC=4C=CC=C(NC(=O)C)C4] | – | 20.3 | – | Not measurable | – | –
COc1cccc(NC(=O)c2cc(-c3cccs3)nc3c2cnn3C(C)C)c1 [IAL-MD0033, COC=1C=CC=C(NC(=O)C=2C=C(N=C3N(N=CC23)C(C)C)C4=CC=CS4)C1] | – | 12.1 | – | Not measurable | – | –
COc1ccc(-c2cc(C(=O)Nc3cccc(OCC(N)=O)c3)c3ccccc3n2)cc1 [IAL-MD0034, COC=1C=CC(=CC1)C=2C=C(C(=O)NC=3C=CC=C(OCC(=O)N)C3)C=4C=CC=CC4N2] | – | 8.9 | – | Not measurable | – | –
CCC(C)NC(=O)c1cc(-c2ccc(OC)cc2)nc2ccccc12 (stereo not shown) [IAL-MD0035, CCC(C)NC(=O)C=1C=C(N=C2C=CC=CC12)C=3C=CC(OC)=CC3] | – | 6.8 | – | Not measurable | – | –
COc1ccc(NC(=O)c2cc(-c3ccc(C)cc3)nc3onc(C)c23)cc1 [IAL-MD0037, COC=1C=CC(NC(=O)C=2C=C(N=C3ON=C(C)C23)C=4C=CC(C)=CC4)=CC1] | – | 9.3 | – | Not measurable | – | –
CCn1ncc2c(C(=O)Nc3cc(Cl)ccc3OC)cc(-c3cccs3)nc21 [IAL-MD0038, CCN1N=CC=2C(=CC(=NC12)C3=CC=CS3)C(=O)NC=4C=C(Cl)C=CC4OC] | – | 50.5 | – | Not measurable | – | –
CCn1ncc2c(C(=O)N3CCNC(=O)C3)cc(-c3cccs3)nc21 [IAL-MD0040, CCN1N=CC=2C(=CC(=NC12)C3=CC=CS3)C(=O)N4CCNC(=O)C4] | 51 | 81 | 21 µM and 20.6 µM | – | – | –
CCn1ncc2c(C(=O)N(C)Cc3ccccc3C)cc(-c3cccs3)nc21 [IAL-MD0042, CCN1N=CC=2C(=CC(=NC12)C3=CC=CS3)C(=O)N(C)CC=4C=CC=CC4C] | – | 20.9 | – | Not measurable | – | –
CC(C)n1ncc2c(C(=O)N3CCNC(=O)C3)cc(-c3ccc4c(c3)OCCO4)nc21 [IAL-MD0044, CC(C)N1N=CC=2C(=CC(=NC12)C=3C=CC=4OCCOC4C3)C(=O)N5CCNC(=O)C5] | – | 30.2 | – | Not measurable | – | –
Cc1nn(C)c2nc(-c3ccccc3)cc(C(=O)N3CCN(C(=O)C4CC4)CC3)c12 [IAL-MD0045, CC1=NN(C)C=2N=C(C=C(C(=O)N3CCN(CC3)C(=O)C4CC4)C12)C=5C=CC=CC5] | – | 47.5 | – | Not measurable | – | –
Cc1nn(C)c2nc(-c3cccs3)cc(C(=O)NCc3ccccn3)c12 [IAL-MD0048, CC1=NN(C)C=2N=C(C=C(C(=O)NCC=3C=CC=CN3)C12)C4=CC=CS4] | – | 15.8 | – | Not measurable | – | –
CC(C)n1ncc2c(C(=O)N3CC(=O)Nc4ccccc43)cc(-c3cccs3)nc21 [IAL-MD0049, CC(C)N1N=CC=2C(=CC(=NC12)C3=CC=CS3)C(=O)N4CC(=O)NC=5C=CC=CC45] | – | 14.3 | – | Not measurable | – | –
CCn1ncc2c(C(=O)N3CCOCC3)cc(-c3ccccc3)nc21 [IAL-MD0050, CCN1N=CC=2C(=CC(=NC12)C=3C=CC=CC3)C(=O)N4CCOCC4] | – | – | – | Not measurable | Not measurable | –
Cc1ccc(-c2cc(C(=O)N3CCOCC3)c3cnn(C(C)C)c3n2)s1 [IAL-MD0051, CC(C)N1N=CC=2C(=CC(=NC12)C3=CC=C(C)S3)C(=O)N4CCOCC4] | – | 59.8 | 12.6 µM | – | – | secondary assay effects at higher concentrations
CC(=O)N1CCN(C(=O)c2cc(-c3cccs3)nc3c2c(C)nn3C)CC1 [IAL-MD0054, CC(=O)N1CCN(CC1)C(=O)C=2C=C(N=C3N(C)N=C(C)C23)C4=CC=CS4] | – | 41.5 | – | Not measurable | – | –
CC(C)n1ncc2c(C(=O)Nc3ccncc3)cc(-c3cccs3)nc21 [IAL-MD0055, CC(C)N1N=CC=2C(=CC(=NC12)C3=CC=CS3)C(=O)NC=4C=CN=CC4] | – | 19.4 | – | Not measurable | – | –
CCn1ncc2c(C(=O)N3CCC(C(O)c4ccccc4)CC3)cc(-c3cccs3)nc21 (stereo not shown) [IAL-MD0056, CCN1N=CC=2C(=CC(=NC12)C3=CC=CS3)C(=O)N4CCC(CC4)C(O)C=5C=CC=CC5] | – | 7 | – | Not measurable | – | –
COc1ccc(-c2cc(C(=O)Nc3ccc(S(C)(=O)=O)cc3)c3ccccc3n2)cc1 [IAL-MD0058, COC=1C=CC(=CC1)C=2C=C(C(=O)NC=3C=CC(=CC3)S(=O)(=O)C)C=4C=CC=CC4N2] | – | 18.7 | – | Not measurable | – | –
CC(=O)Nc1ccc(C=Cc2cc(C(=O)O)c3cc(C)ccc3n2)cc1 [IAL-MD0059, CC(=O)NC=1C=CC(C=CC=2C=C(C(=O)O)C=3C=C(C)C=CC3N2)=CC1] | – | 63 | 22.8 µM | – | – | –
CC(C)n1ncc2c(C(=O)N3CCc4ccccc4C3)cc(-c3cccs3)nc21 [IAL-MD0060, CC(C)N1N=CC=2C(=CC(=NC12)C3=CC=CS3)C(=O)N4CCC=5C=CC=CC5C4] | – | 1.9 | – | Not measurable | – | –
CCn1ncc2c(C(=O)Nc3cccc(-c4nnco4)c3)cc(-c3cccs3)nc21 [IAL-MD0061, CCN1N=CC=2C(=CC(=NC12)C3=CC=CS3)C(=O)NC=4C=CC=C(C4)C5=NN=CO5] | – | 7 | – | Not measurable | – | –
CCn1ncc2c(C(=O)N(C)CC(=O)NCc3ccco3)cc(-c3cccs3)nc21 [IAL-MD0062, CCN1N=CC=2C(=CC(=NC12)C3=CC=CS3)C(=O)N(C)CC(=O)NCC4=CC=CO4] | – | 42.2 | – | Not measurable | – | –
CC(C)n1ncc2c(C(=O)N3CCNC(=O)C3)cc(-c3cccs3)nc21 [IAL-MD0064, CC(C)N1N=CC=2C(=CC(=NC12)C3=CC=CS3)C(=O)N4CCNC(=O)C4] | – | 78.7 | 25 µM and 25.2 µM | – | – | –
CC(C)n1ncc2c(C(=O)N(C)Cc3ccc4c(c3)OCO4)cc(-c3cccs3)nc21 [IAL-MD0065, CC(C)N1N=CC=2C(=CC(=NC12)C3=CC=CS3)C(=O)N(C)CC=4C=CC=5OCOC5C4] | – | 9.5 | – | Not measurable | – | –
CCn1ncc2c(C(=O)N3CCCC3c3ccc(OC)cc3)cc(-c3cccs3)nc21 (stereo not shown) [IAL-MD0066, CCN1N=CC=2C(=CC(=NC12)C3=CC=CS3)C(=O)N4CCCC4C=5C=CC(OC)=CC5] | – | 13.5 | – | Not measurable | – | –
CCn1ncc2c(C(=O)N3CCN(C(=O)c4ccccc4)CC3)cc(-c3ccccc3)nc21 [IAL-MD0069, CCN1N=CC=2C(=CC(=NC12)C=3C=CC=CC3)C(=O)N4CCN(CC4)C(=O)C=5C=CC=CC5] | – | – | – | Not measurable | Not measurable | –
CC(C)n1ncc2c(C(=O)N3CCNC(=O)C3)cc(-c3ccco3)nc21 [IAL-MD0070, CC(C)N1N=CC=2C(=CC(=NC12)C3=CC=CO3)C(=O)N4CCNC(=O)C4] | – | 83.2 | 16.3 µM | – | – | –
CCn1ncc2c(C(=O)N(Cc3ccccn3)C(C)C)cc(-c3cccs3)nc21 [IAL-MD0071, CCN1N=CC=2C(=CC(=NC12)C3=CC=CS3)C(=O)N(CC=4C=CC=CN4)C(C)C] | – | 36.8 | – | Not measurable | – | –
